From ChEMBL document CHEMBL1201862, “PubChem BioAssay data set” (2004)
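Where inhibition never reached the appropriate level, the endpoint shown equals the highest concentration tested. Otherwise, values were interpolated linearly from a five-concentration, 48-hour dose response in 96-well plates. GI50 marks 50% less growth.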 Activity calls are given as the source filed them. Rule as the data show it: active = GI50 up to about 1.1 µM and inactive = higher.

Tests used:
Assay in all cases: growth of human tumour cells (NCI), 48 h
OVCAR-3 = system: OVCAR-3
SF-268 = system: SF-268
HOP-92 = system: HOP-92
SN12C = system: SN12C
ACHN = system: ACHN
HOP-62 = system: HOP-62
CAKI-1 = system: CAKI-1
U-251 = system: U-251
LOX IMVI = system: LOX IMVI
Malme-3M = system: Malme-3M
PC-3 = system: PC-3
MDA-MB-231 = system: MDA-MB-231
HCC 2998 = system: HCC 2998
Hs-578T = system: Hs-578T
A498 = system: A498
SW-620 = system: SW-620
RXF 393 = system: RXF 393
SF-295 = system: SF-295
SK-MEL-28 = system: SK-MEL-28
SK-MEL-5 = system: SK-MEL-5

| SMILES | GI50 (OVCAR-3) | GI50 (SF-268) | GI50 (HOP-92) | GI50 (SN12C) | GI50 (ACHN) | GI50 (HOP-62) | GI50 (CAKI-1) | GI50 (U-251) | GI50 (LOX IMVI) | GI50 (Malme-3M) | GI50 (PC-3) | GI50 (MDA-MB-231) | GI50 (HCC 2998) | GI50 (Hs-578T) | GI50 (A498) | GI50 (SW-620) | GI50 (RXF 393) | GI50 (SF-295) | GI50 (SK-MEL-28) | GI50 (SK-MEL-5) |
| --- | --- | --- | --- | --- | --- | --- | --- | --- | --- | --- | --- | --- | --- | --- | --- | --- | --- | --- | --- | --- |
| O=c1c(Cc2c(O)ccc3ccccc23)nnc2sc(-c3nn4c(=O)c(Cc5c(O)ccc6ccccc56)nnc4s3)nn12 | > 100 µM (inactive) | 8.63 µM (inactive) | 38.1 µM (inactive) | > 100 µM (inactive) | 57.4 µM (inactive) | 28.5 µM (inactive) | > 100 µM (inactive) | 26.2 µM (inactive) | > 100 µM (inactive) | > 100 µM (inactive) | > 100 µM (inactive) | 32.6 µM (inactive) | > 100 µM (inactive) | 10.8 µM (inactive) | 42.2 µM (inactive) | > 100 µM (inactive) | 22.9 µM (inactive) | – | – | – |
| CCOC(=O)c1cc(C2CCN(c3ccccc3)C2=O)c(C(=O)/C=C(/C)N)[nH]1 (stereo not drawn) | 39.6 µM (inactive) | 30.2 µM (inactive) | – | 21.8 µM (inactive) | 40.6 µM (inactive) | 18.1 µM (inactive) | 21.3 µM (inactive) | 15 µM (inactive) | 28 µM (inactive) | 17.6 µM (inactive) | 39.5 µM (inactive) | 56.4 µM (inactive) | > 100 µM (inactive) | 14.9 µM (inactive) | 57 µM (inactive) | 45.8 µM (inactive) | 37.9 µM (inactive) | 15.9 µM (inactive) | 29.1 µM (inactive) | 40.8 µM (inactive) |
| CCOC(=O)c1ccc(NCC#CCN2CCCCC2)cc1 | > 100 µM (inactive) | > 100 µM (inactive) | > 100 µM (inactive) | > 100 µM (inactive) | 57.5 µM (inactive) | > 100 µM (inactive) | – | > 100 µM (inactive) | > 100 µM (inactive) | > 100 µM (inactive) | > 100 µM (inactive) | > 100 µM (inactive) | – | > 100 µM (inactive) | > 100 µM (inactive) | > 100 µM (inactive) | > 100 µM (inactive) | – | > 100 µM (inactive) | 38.5 µM (inactive) |
| O=[N+]([O-])C1=Cc2c(O)ccc(O)c2C2OC=CC12 (stereo not drawn) | 7.94 µM (inactive) | 19.8 µM (inactive) | 22.3 µM (inactive) | 18.2 µM (inactive) | 14.8 µM (inactive) | 18.3 µM (inactive) | 13.1 µM (inactive) | 16.1 µM (inactive) | 15.7 µM (inactive) | – | 14.7 µM (inactive) | 18.5 µM (inactive) | 27.4 µM (inactive) | 29.2 µM (inactive) | 15.7 µM (inactive) | 30 µM (inactive) | 15.2 µM (inactive) | 16.3 µM (inactive) | 44.8 µM (inactive) | 12.4 µM (inactive) |
| CC(C(=O)n1ccnc1)N1c2ccccc2Sc2ccccc21 (stereo not drawn) | 38.5 µM (inactive) | 98.2 µM (inactive) | 25.1 µM (inactive) | 96.6 µM (inactive) | 83.2 µM (inactive) | 67.5 µM (inactive) | – | 64.4 µM (inactive) | 82.8 µM (inactive) | 83.6 µM (inactive) | 55.1 µM (inactive) | 78.3 µM (inactive) | – | > 100 µM (inactive) | 47.2 µM (inactive) | > 100 µM (inactive) | > 100 µM (inactive) | > 100 µM (inactive) | > 100 µM (inactive) | 35 µM (inactive) |
| O=C(NCCCCCCCCNC(=O)c1cc(-c2ccccc2)nc2ccccc12)c1cc(-c2ccccc2)nc2ccccc12 | > 100 µM (inactive) | 68.9 µM (inactive) | > 100 µM (inactive) | > 100 µM (inactive) | > 100 µM (inactive) | 38.8 µM (inactive) | > 100 µM (inactive) | 35.3 µM (inactive) | > 100 µM (inactive) | > 100 µM (inactive) | > 100 µM (inactive) | > 100 µM (inactive) | – | 28.7 µM (inactive) | > 100 µM (inactive) | > 100 µM (inactive) | 2.48 µM (inactive) | > 100 µM (inactive) | > 100 µM (inactive) | > 100 µM (inactive) |
| COc1cc2c(cc1OC)C(=O)C1(C2)[C@H](c2ccccc2)C2C(=O)c3cc(OC)c(OC)cc3C2[C@H]1c1ccccc1 (stereo partly drawn) | > 100 µM (inactive) | > 100 µM (inactive) | – | > 100 µM (inactive) | 25.8 µM (inactive) | > 100 µM (inactive) | 0.259 µM (active) | > 100 µM (inactive) | > 100 µM (inactive) | > 100 µM (inactive) | > 100 µM (inactive) | > 100 µM (inactive) | > 100 µM (inactive) | > 100 µM (inactive) | > 100 µM (inactive) | > 100 µM (inactive) | 63.5 µM (inactive) | > 100 µM (inactive) | > 100 µM (inactive) | > 100 µM (inactive) |
| COC(=O)CC(C)(N[S+]([O-])c1ccc(C)cc1)c1ccccc1 (stereo not drawn) | > 100 µM (inactive) | > 100 µM (inactive) | > 100 µM (inactive) | > 100 µM (inactive) | > 100 µM (inactive) | > 100 µM (inactive) | – | > 100 µM (inactive) | > 100 µM (inactive) | > 100 µM (inactive) | > 100 µM (inactive) | > 100 µM (inactive) | > 100 µM (inactive) | > 100 µM (inactive) | > 100 µM (inactive) | > 100 µM (inactive) | > 100 µM (inactive) | > 100 µM (inactive) | > 100 µM (inactive) | > 100 µM (inactive) |
| Cn1cc(S(=O)(=O)NC(=O)Nc2ccc(Cl)cc2)c(=O)c2ccc(F)cc21 | – | > 100 µM (inactive) | > 100 µM (inactive) | > 100 µM (inactive) | > 100 µM (inactive) | > 100 µM (inactive) | > 100 µM (inactive) | > 100 µM (inactive) | 22.6 µM (inactive) | > 100 µM (inactive) | > 100 µM (inactive) | > 100 µM (inactive) | > 100 µM (inactive) | > 100 µM (inactive) | > 100 µM (inactive) | > 100 µM (inactive) | > 100 µM (inactive) | > 100 µM (inactive) | > 100 µM (inactive) | > 100 µM (inactive) |
| O=C(O)CC(Sc1ccccc1)c1ccccc1 (stereo not drawn) | > 100 µM (inactive) | > 100 µM (inactive) | > 100 µM (inactive) | > 100 µM (inactive) | > 100 µM (inactive) | > 100 µM (inactive) | > 100 µM (inactive) | > 100 µM (inactive) | > 100 µM (inactive) | > 100 µM (inactive) | > 100 µM (inactive) | > 100 µM (inactive) | – | > 100 µM (inactive) | > 100 µM (inactive) | > 100 µM (inactive) | > 100 µM (inactive) | > 100 µM (inactive) | > 100 µM (inactive) | > 100 µM (inactive) |
| CSC(=S)CC(O)[C@@H]1CC2c3ccccc3C1c1ccccc12 (stereo partly drawn) | 8.51 µM (inactive) | 15.4 µM (inactive) | 17.4 µM (inactive) | 18.7 µM (inactive) | 13.6 µM (inactive) | 15.7 µM (inactive) | – | 3.55 µM (inactive) | 6.35 µM (inactive) | 19.7 µM (inactive) | 5.83 µM (inactive) | 23.8 µM (inactive) | 12.8 µM (inactive) | 15 µM (inactive) | 20.7 µM (inactive) | 4.81 µM (inactive) | 2.19 µM (inactive) | 16.6 µM (inactive) | 21.7 µM (inactive) | 13.4 µM (inactive) |
| COC1CC(C)(NC(=O)C(F)(F)F)C2OC(c3ccccc3)OCC2O1 (stereo not drawn) | > 100 µM (inactive) | > 100 µM (inactive) | > 100 µM (inactive) | > 100 µM (inactive) | > 100 µM (inactive) | > 100 µM (inactive) | > 100 µM (inactive) | > 100 µM (inactive) | > 100 µM (inactive) | > 100 µM (inactive) | > 100 µM (inactive) | > 100 µM (inactive) | – | > 100 µM (inactive) | > 100 µM (inactive) | > 100 µM (inactive) | > 100 µM (inactive) | > 100 µM (inactive) | > 100 µM (inactive) | > 100 µM (inactive) |
| CN(O)C(=O)/C=C/c1ccc(OCc2cccc(Cl)c2)cc1 | 38.6 µM (inactive) | 23.9 µM (inactive) | 24.3 µM (inactive) | 20.1 µM (inactive) | 14.5 µM (inactive) | 24.4 µM (inactive) | 26.4 µM (inactive) | 22 µM (inactive) | 11.2 µM (inactive) | – | 24.5 µM (inactive) | 43.9 µM (inactive) | 23.6 µM (inactive) | 61.7 µM (inactive) | 17 µM (inactive) | 26.9 µM (inactive) | 30.7 µM (inactive) | 22.8 µM (inactive) | 38.5 µM (inactive) | 24.2 µM (inactive) |
| O=C1c2ccccc2C(=O)C2NC(CCCCCSSCCCCCC3=NC4C(=O)c5ccccc5C(=O)C4N3)=NC12 (stereo not drawn) | > 100 µM (inactive) | 27.3 µM (inactive) | 5.56 µM (inactive) | – | 10.4 µM (inactive) | > 100 µM (inactive) | 6.47 µM (inactive) | 17.6 µM (inactive) | > 100 µM (inactive) | – | > 100 µM (inactive) | 96.2 µM (inactive) | – | 25.7 µM (inactive) | 23.7 µM (inactive) | 90.8 µM (inactive) | 22.3 µM (inactive) | 4.57 µM (inactive) | > 100 µM (inactive) | 19.9 µM (inactive) |
| CC(C)CC1c2[nH]c3ccccc3c2C[C@H]2C(=O)NC(COC(C)(C)C)C(=O)N12 (stereo partly drawn) | 3.05 µM (inactive) | 23.6 µM (inactive) | 31.8 µM (inactive) | 21.2 µM (inactive) | 26.8 µM (inactive) | 46.2 µM (inactive) | 28.2 µM (inactive) | 20.4 µM (inactive) | 17.3 µM (inactive) | 19.6 µM (inactive) | 22 µM (inactive) | 18.7 µM (inactive) | – | 13.3 µM (inactive) | 30.3 µM (inactive) | 31 µM (inactive) | 14.7 µM (inactive) | 17.3 µM (inactive) | 31.5 µM (inactive) | 21.8 µM (inactive) |
